In patent US5753660A, “Substituted sulfonylalkanoylamino hydroxyethylamino sulfonamide retroviral protease inhibitors” (G. D. Searle & Co., priority 1996, dated 1998):

Legend:
HIV-1 = test: HIV inhibition assay in acutely infected CEM cells (tetrazolium/MTT based); assay type: cell-based; settings: Human immunodeficiency virus 1, CCRF-CEM, 168 h, HIV-1 1000 TCID50, MTT, 7 days
Method: The effectiveness of various compounds were determined in the above-described enzyme assay and in a CEM cell assay.
The HIV inhibition assay method of acutely infected cells is an automated tetrazolium based calorimetric assay essentially that reported by Pauwles et al, J. Virol. Methods, 20, 309-321 (1988). Assays were performed in 96-well tissue culture plates. CEM cells, a CD4+ cell line, were grown in RPMI-1640 medium (Gibco) supplemented with a 10% fetal calf serum and were then treated with polybrene (2 μug/ml). An 80 μl volume of medium containing 1×10^4 cells was dispensed into each well of the tissue culture plate. To each well was added a 100 μl volume of test compound dissolved in tissue culture medium (or medium without test compound as a control) to achieve the desired final concentration and the cells were incubated at 37° C. for 1 hour. A frozen culture of HIV-1 was diluted in culture medium to a concentration of 5×10^4 TCID50 per ml (TCID50 =the dose of virus that infects 50% of cells in tissue culture), and a 20 μl volume of the virus sample (containing 1000 TCID50 of virus) was added to wells containing test compound and to wells containing only medium (infected control cells). Several wells received culture medium without virus (uninfected control cells). Likewise, the intrinsic toxicity of the test compound was determined by adding medium without virus to several wells containing test compound. In summary, the tissue culture plates contained the following experiments:
In experiments 2 and 4 the final concentrations of test compounds were 1, 10, 100 and 500 μg/ml. Either azidothymidine (AZT) or dideoxyinosine (ddI) was included as a positive drug control. […] DMSO was added to all control wells at an appropriate concentration.
Following the addition of virus, cells were incubated at 37° C. in a humidified, 5% CO2 atmosphere for 7 days. Test compounds could be added on days 0, 2 and 5 if desired. On day 7,post-infection, the cells in each well were resuspended and a 100 μl sample of each cell suspension was removed for assay. A 20 μL volume of a 5 mg/ml solution of 3-(4,5-dimethylthiazol-2-yl)-2,5-diphenyltetrazolium bromide (MTT) was added to each 100 μL cell suspension, and the cells were incubated for 4 hours at […] in a 5% CO2 environment. […] To each sample was added 100 μl of 10% sodium dodecylsulfate in 0.01N HC1 to lyse the cells, and samples were incubated overnight. The absorbance at 590 nm was determined for each sample using a Molecular Devices microplate reader. Absorbance values for each set of wells is compared to assess viral control infection, uninfected control cell response as well as test compound by cytotoxicity and antiviral efficacy.

HIV protease = target: T1, HIV protease (Human immunodeficiency virus type 1 group M subtype B, UniProt P04585); test: HIV protease enzyme assay; assay type: biochemical; settings: HIV protease 12.3 nanomolar; substrate 80 μM; pH 6.4; ambient temperature
T1 construct: HIV protease is diluted in the assay buffer to a final enzyme concentration of 12.3 nanomolar, based on a molecular weight of 10,780
Source text: The compounds of the present invention are effective HIV protease inhibitors. Utilizing an enzyme assay as described below, the compounds set forth in the examples herein disclosed inhibited the HIV enzyme. The preferred compounds of the present invention and their calculated IC50 (inhibiting concentration 50%, i.e., the concentration at which the inhibitor compound reduces enzyme activity by 50%) values are shown in Table 14. The enzyme method is described below. The substrate is 2-Ile-Nle-Phe(p-NO2)-Gln-ArgNH2. The positive control is MVT-101 (Miller, M. et al, Science, 246, 1149 (1989)] The assay conditions are as follows:
Assay buffer: 20 mM sodium phosphate, pH 6.4
The above described substrate is dissolved in DMSO, then diluted 10 fold in assay buffer. Final substrate concentration in the assay is 80 μM. HIV protease is diluted in the assay buffer to a final enzyme concentration of 12.3 nanomolar, based on a molecular weight of 10,780.
The final concentration of DMSO is 14% and the final concentration of glycerol is 18%. The test compound is dissolved in DMSO and diluted in DMSO to 10×the test concentration; 10 μl of the enzyme preparation is added, the materials mixed and then the mixture is incubated at ambient temperature for 15 minutes. The enzyme reaction is initiated by the addition of 40 μl of substrate. The increase in fluorescence is monitored at 4 time points (0, 8, 16 and 24 minutes) at ambient temperature. Each assay is carried out in duplicate wells.

Compound | EC50 (HIV-1) | IC50 (HIV protease)
CC(C)CN(C[C@@H](O)[C@H](Cc1ccccc1)NC(=O)[C@H](C)CS(=O)(=O)CCc1ccccn1)S(=O)(=O)c1ccc2c(c1)OCO2 | 6 nM | 3 nM
CC(C)CN(C[C@@H](O)[C@H](Cc1ccccc1)NC(=O)[C@H](C)CS(=O)(=O)CC(=O)NCC[N+]1([O-])CCCC1)S(=O)(=O)c1ccc2c(c1)OCO2 [Example 2] | – | 10 nM
CC(C)CN(C[C@@H](O)[C@H](Cc1ccccc1)NC(=O)[C@H](C)CS(=O)(=O)CCC(=O)N1CCN(C(=O)OC(C)(C)C)CC1)S(=O)(=O)c1ccc2c(c1)OCO2 [Example 3] | – | 4 nM
CC(C)CN(C[C@@H](O)[C@H](Cc1ccccc1)NC(=O)[C@H](C)CS(=O)(=O)CCC(=O)N1CCNCC1)S(=O)(=O)c1ccc2c(c1)OCO2 [Example 4] | – | 4 nM
CC(C)CN(C[C@@H](O)[C@H](Cc1ccccc1)NC(=O)[C@H](C)CS(=O)(=O)CC(=O)NCC[N+]1([O-])CCOCC1)S(=O)(=O)c1ccc2c(c1)OCO2 [Example 5] | – | 10 nM
CC(C)CN(C[C@@H](O)[C@H](Cc1ccccc1)NC(=O)[C@H](C)CS(=O)(=O)CCC(=O)N1CCOCC1)S(=O)(=O)c1ccc2c(c1)OCO2 [Example 6] | 123 nM | 24 nM
CC(C)CN(C[C@@H](O)[C@H](Cc1ccccc1)NC(=O)[C@H](C)CS(=O)(=O)CC(=O)N1CCN(C(=O)OC(C)(C)C)CC1)S(=O)(=O)c1ccc2c(c1)OCO2 [Example 7] | – | 7 nM
CC(C)CN(C[C@@H](O)[C@H](Cc1ccccc1)NC(=O)[C@H](C)CS(=O)(=O)CC(=O)N1CCNCC1)S(=O)(=O)c1ccc2c(c1)OCO2 [Example 8] | – | 27 nM
CC(C)CN(C[C@@H](O)[C@H](Cc1ccccc1)NC(=O)[C@H](C)CS(=O)(=O)CC(=O)c1ccccc1)S(=O)(=O)c1ccc2c(c1)OCO2 [Example 9] | 39 nM | 4 nM
CC(C)CN(C[C@@H](O)[C@H](Cc1ccccc1)NC(=O)[C@H](C)CS(=O)(=O)CC(=O)N1CCS(=O)(=O)CC1)S(=O)(=O)c1ccc2c(c1)OCO2 [Example 10] | – | 16 nM
CCOC(=O)CCCSC[C@@H](C)C(=O)N[C@@H](Cc1ccccc1)[C@H](O)CN(CC(C)C)S(=O)(=O)c1ccc2c(c1)OCO2 [Example 11] | – | 22 nM
CC(C)CN(C[C@@H](O)[C@H](Cc1ccccc1)NC(=O)[C@H](C)CS(=O)(=O)Cc1c[nH]cn1)S(=O)(=O)c1ccc2c(c1)OCO2 [Example 12] | 187 nM | 7 nM
CC(C)CN(C[C@@H](O)[C@H](Cc1ccccc1)NC(=O)[C@H](C)CS(=O)(=O)Cc1cc[nH]n1)S(=O)(=O)c1ccc2c(c1)OCO2 [Example 13] | 71 nM | 5 nM
CC(C)CN(C[C@@H](O)[C@H](Cc1ccccc1)NC(=O)[C@H](C)CS(=O)(=O)Cc1cn[nH]c1)S(=O)(=O)c1ccc2c(c1)OCO2 [Example 14] | 81 nM | 4 nM
CC(C)CN(C[C@@H](O)[C@H](Cc1ccccc1)NC(=O)[C@H](C)CS(=O)(=O)Cc1nc2ccccc2[nH]1)S(=O)(=O)c1ccc2c(c1)OCO2 [Example 15] | 47 nM | 3 nM
CC(C)CN(C[C@@H](O)[C@H](Cc1ccccc1)NC(=O)[C@H](C)CS(=O)(=O)Cc1cncs1)S(=O)(=O)c1ccc2c(c1)OCO2 [Example 16] | 21 nM | 4 nM
CC(C)CN(C[C@@H](O)[C@H](Cc1ccccc1)NC(=O)[C@H](C)CS(=O)(=O)C[C@H]1CCCN1)S(=O)(=O)c1ccc2c(c1)OCO2 [Example 17] | 160 nM | 4 nM
CC(C)CN(C[C@@H](O)[C@H](Cc1ccccc1)NC(=O)[C@H](C)CS(=O)(=O)C[C@@H]1CCCN1)S(=O)(=O)c1ccc2c(c1)OCO2 [Example 18] | – | 6 nM
CC(C)CN(C[C@@H](O)[C@H](Cc1ccccc1)NC(=O)[C@H](C)CS(=O)(=O)c1ccccn1)S(=O)(=O)c1ccc2c(c1)OCO2 [Example 19] | 174 nM | 11 nM
CC(C)CN(C[C@@H](O)[C@H](Cc1ccccc1)NC(=O)[C@H](C)CS(=O)(=O)CC(CO)CO)S(=O)(=O)c1ccc2c(c1)OCO2 [Example 20] | – | 4 nM
COC1O[C@H](CS(=O)(=O)C[C@@H](C)C(=O)N[C@@H](Cc2ccccc2)[C@H](O)CN(CC(C)C)S(=O)(=O)c2ccc3c(c2)OCO3)[C@@H](O)[C@H]1O (some centres unmarked) [Example 21] | – | 9 nM
CC(C)CN(C[C@@H](O)[C@H](Cc1ccccc1)NC(=O)[C@H](C)CSCC(=O)N1CCOCC1)S(=O)(=O)c1ccc2c(c1)OCO2 [Example 22] | – | 63 nM
CC(C)CN(C[C@@H](O)[C@H](Cc1ccccc1)NC(=O)[C@H](C)CSCC(=O)N1CCN(C(=O)OC(C)(C)C)CC1)S(=O)(=O)c1ccc2c(c1)OCO2 [Example 23] | – | 12 nM
CC(C)CN(C[C@@H](O)[C@H](Cc1ccccc1)NC(=O)[C@H](C)CSCC(=O)N1CCSCC1)S(=O)(=O)c1ccc2c(c1)OCO2 [Example 24] | – | 25 nM
CC(C)CN(C[C@@H](O)[C@H](Cc1ccccc1)NC(=O)[C@H](C)CS(=O)(=O)C[C@H]1CCCN1C(=O)OCc1ccccc1)S(=O)(=O)c1ccc2c(c1)OCO2 [Example 25] | 43 nM | 6 nM
CC(C)CN(C[C@@H](O)[C@H](Cc1ccccc1)NC(=O)[C@H](C)CSCCC(=O)N1CCN(C(=O)OC(C)(C)C)CC1)S(=O)(=O)c1ccc2c(c1)OCO2 [Example 26] | – | 16 nM
CC(C)CN(C[C@@H](O)[C@H](Cc1ccccc1)NC(=O)[C@H](C)CSCC(=O)NCCN1CCCC1)S(=O)(=O)c1ccc2c(c1)OCO2 [Example 27] | – | 75 nM
